The target in one experiment is T1, PDE4B1 (Homo sapiens, UniProt Q07343).
T1 construct: gene PDE4B; isoform PDE4B1, human recombinant
The experiment in a line: IMAP FP PDE assay, % inhibition at […]. Conditions: read-out: PDE4B1 ^a. The format is biochemical.

The target in another experiment is T2, adenosine A2A receptor (Homo sapiens, UniProt P29274).
T2 construct: gene ADORA2A; human recombinant, expressed in HEK 293 cells
The experiment in a line: radioligand displacement with [3H]-CGS21680. The format is binding.

A further experiment deals with T3, PDE4D3 (Homo sapiens, UniProt Q08499).
T3 construct: gene PDE4D; isoform PDE4D3, human recombinant
T3 sequence (Q08499 153-809): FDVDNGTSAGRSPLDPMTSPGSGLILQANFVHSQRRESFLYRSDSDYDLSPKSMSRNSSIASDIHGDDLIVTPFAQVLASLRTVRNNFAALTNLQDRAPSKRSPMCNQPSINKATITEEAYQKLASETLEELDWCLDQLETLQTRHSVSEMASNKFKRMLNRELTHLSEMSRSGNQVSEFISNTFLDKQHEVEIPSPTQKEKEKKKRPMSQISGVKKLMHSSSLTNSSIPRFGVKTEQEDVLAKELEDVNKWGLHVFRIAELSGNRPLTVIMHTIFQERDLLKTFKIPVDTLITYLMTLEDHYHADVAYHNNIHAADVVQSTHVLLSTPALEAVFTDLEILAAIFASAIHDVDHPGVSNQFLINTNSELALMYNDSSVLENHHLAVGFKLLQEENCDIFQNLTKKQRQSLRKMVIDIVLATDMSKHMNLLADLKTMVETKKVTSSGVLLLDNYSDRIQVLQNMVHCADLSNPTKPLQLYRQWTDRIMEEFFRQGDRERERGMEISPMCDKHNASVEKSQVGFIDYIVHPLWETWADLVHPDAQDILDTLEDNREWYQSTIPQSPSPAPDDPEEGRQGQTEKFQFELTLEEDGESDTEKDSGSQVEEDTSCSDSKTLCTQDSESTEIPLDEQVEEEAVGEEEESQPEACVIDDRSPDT
The experiment in a line: IMAP FP PDE assay, % inhibition at […]. The format is biochemical.

Experiment [1] has as its target T4, PDE4A1A (Homo sapiens, UniProt P27815).
T4 construct: gene PDE4A; isoform PDE4A1A, human recombinant
The experiment in a line: IMAP FP PDE assay (FAM-cAMP), concentration-response. The experiment is classed as biochemical.

For experiment [2], the target named is T4, PDE4A1A. The experiment in a line: IMAP FP PDE assay, % inhibition at […]. The format is biochemical.

The source of these data is publication PMC6316713, “Design, Synthesis, Experimental and Theoretical Characterization of a New Multitarget 2-Thienyl-N-Acylhydrazone Derivative” (Pharmaceuticals, 2018).

T1 sequence (Q07343 whole entry, canonical isoform): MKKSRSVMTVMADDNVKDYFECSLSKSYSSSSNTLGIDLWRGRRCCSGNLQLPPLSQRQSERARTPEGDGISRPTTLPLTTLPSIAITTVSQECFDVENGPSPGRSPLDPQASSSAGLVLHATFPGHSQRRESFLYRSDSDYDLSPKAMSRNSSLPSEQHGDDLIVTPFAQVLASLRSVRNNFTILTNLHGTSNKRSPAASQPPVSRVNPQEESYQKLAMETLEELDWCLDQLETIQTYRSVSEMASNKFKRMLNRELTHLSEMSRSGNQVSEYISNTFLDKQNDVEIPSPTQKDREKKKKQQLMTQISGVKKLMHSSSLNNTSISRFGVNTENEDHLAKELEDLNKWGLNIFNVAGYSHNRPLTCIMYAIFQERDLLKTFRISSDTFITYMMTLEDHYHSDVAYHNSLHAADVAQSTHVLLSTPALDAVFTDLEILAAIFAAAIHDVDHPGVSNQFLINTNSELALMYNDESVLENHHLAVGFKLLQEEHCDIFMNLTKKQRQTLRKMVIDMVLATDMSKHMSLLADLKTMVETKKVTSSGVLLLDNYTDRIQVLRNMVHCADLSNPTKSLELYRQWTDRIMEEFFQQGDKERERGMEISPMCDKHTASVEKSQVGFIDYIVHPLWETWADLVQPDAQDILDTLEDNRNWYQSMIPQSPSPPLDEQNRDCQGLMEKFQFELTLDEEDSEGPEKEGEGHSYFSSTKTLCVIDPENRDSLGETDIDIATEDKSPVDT
T4 sequence (P27815 265-886 limits assumed): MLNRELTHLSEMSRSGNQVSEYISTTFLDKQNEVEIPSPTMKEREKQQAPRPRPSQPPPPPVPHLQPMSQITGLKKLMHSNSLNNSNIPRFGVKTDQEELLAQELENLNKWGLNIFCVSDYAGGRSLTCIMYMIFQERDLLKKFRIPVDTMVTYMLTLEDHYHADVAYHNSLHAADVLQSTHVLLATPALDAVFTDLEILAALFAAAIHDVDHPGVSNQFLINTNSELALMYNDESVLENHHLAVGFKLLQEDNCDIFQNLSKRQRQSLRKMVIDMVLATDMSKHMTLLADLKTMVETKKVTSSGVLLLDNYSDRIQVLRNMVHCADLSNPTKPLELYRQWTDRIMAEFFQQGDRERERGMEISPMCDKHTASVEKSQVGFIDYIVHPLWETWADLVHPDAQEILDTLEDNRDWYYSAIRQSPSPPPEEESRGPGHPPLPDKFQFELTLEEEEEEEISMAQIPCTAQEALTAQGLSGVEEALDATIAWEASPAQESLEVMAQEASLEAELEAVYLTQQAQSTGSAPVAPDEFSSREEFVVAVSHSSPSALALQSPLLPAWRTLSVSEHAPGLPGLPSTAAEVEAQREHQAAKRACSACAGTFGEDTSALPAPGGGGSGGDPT
T2 sequence (P29274 whole entry): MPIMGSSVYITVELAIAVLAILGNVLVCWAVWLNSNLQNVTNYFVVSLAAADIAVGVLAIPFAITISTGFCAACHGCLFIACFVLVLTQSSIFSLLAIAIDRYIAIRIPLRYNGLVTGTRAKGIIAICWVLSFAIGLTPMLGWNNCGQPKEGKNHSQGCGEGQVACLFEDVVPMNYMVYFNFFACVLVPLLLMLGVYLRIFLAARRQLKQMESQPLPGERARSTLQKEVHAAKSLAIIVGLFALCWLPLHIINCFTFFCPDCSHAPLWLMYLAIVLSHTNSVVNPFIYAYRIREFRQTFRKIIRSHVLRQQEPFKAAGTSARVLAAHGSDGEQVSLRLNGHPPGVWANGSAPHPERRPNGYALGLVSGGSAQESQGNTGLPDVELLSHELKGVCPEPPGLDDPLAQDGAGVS

A word on the Ki: it is a dissociation constant, usually derived from enzyme kinetics or from competition with a known ligand. Higher therefore signals weaker binding. As a reminder, the IC50 is the point on the concentration scale where inhibition reaches its midpoint. The low end stands for inhibition by little substance, the high end for a need for much substance. `COc1ccc(/C=N/N(C)C(=O)c2cccs2)cc1OC` [compound 4, LASSBio-1835]: the inhibition at 10 µM on PDE4B1 is 44%; on PDE4D3, 40%. The molecule further displayed a Ki at adenosine A2A receptor of 1500 nM. This molecule gave a half-inhibitory concentration (IC50) against PDE4A1A [1] of 1080 nM.

For `COc1ccc(/C=N/NC(=O)c2cccs2)cc1OC` [compound 3, LASSBio-1834], the inhibition at 10 µM against PDE4A1A [2] turned out to be 53%; on PDE4B1, 48%.
